The IC50 is the point on the concentration scale where inhibition reaches its midpoint. A low value points to inhibition by little substance.

For 13 compounds, IC50 results are on record in BindingDB's records for doi:10.1111/j.1747-0285.2009.00860.x (National University of Singapore, 2009).

The target in the test is T1, Dihydrofolate reductase (Bos taurus, UniProt P00376).
T1 sequence (P00376 whole entry): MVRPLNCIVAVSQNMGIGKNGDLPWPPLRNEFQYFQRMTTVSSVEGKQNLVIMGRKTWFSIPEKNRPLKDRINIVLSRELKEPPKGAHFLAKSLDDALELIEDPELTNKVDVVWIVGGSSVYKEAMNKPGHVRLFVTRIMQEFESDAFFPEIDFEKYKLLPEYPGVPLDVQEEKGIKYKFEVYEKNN
The test can be described thus: Inhibition Assay. An excerpt: Inhibition activity using bovine dihydrofolate reductase (DHFR).
With `CN(CCCON1C(N)=NC(N)=NC12CCCC2)c1ccccc1` [6,8,10-Traiazaspiro[4.5]deca-6,8-diene-7,9-diamine, If], the IC50 stood at 14.9 nM.
Consider `NC1=NC2(CCCCC2)N(OCCc2ccccc2)C(N)=N1` [1,3,5-Triazaspiro[5.5]undeca-1,3-diene-2,4-diamine, IIc], for which the IC50 worked out at 9.4 nM.
The figure for `NC1=NC2(CCCCC2)N(OCCCOc2ccccc2)C(N)=N1` is 6.9 nM.
For the compound `NC1=NC2(CCCCC2)N(OCCCCOc2ccccc2)C(N)=N1` [1,3,5-Triazaspiro[5.5]undeca-1,3-diene-2,4-diamine, IIg], the IC50 turned out to be 155 nM.
The figure for `NC1=NC2(CCCCC2)N(OCCCc2ccccc2)C(N)=N1` [1,3,5-Triazaspiro[5.5]undeca-1,3-diene-2,4-diamine, IId] is 31.9 nM.
The figure for `NC1=NC2(CCCC2)N(OCCCCOc2ccccc2)C(N)=N1` [6,8,10-Traiazaspiro[4.5]deca-6,8-diene-7,9-diamine, Ig] is 42.2 nM; for `CN(CCCON1C(N)=NC(N)=NC12CCCCC2)c1ccccc1` [1,3,5-Triazaspiro[5.5]undeca-1,3-diene-2,4-diamine, IIf] it is 41.4 nM.
The compound `NC1=NC2(CCCCC2)N(OCc2ccccc2)C(N)=N1` [1,3,5-Triazaspiro[5.5]undeca-1,3-diene-2,4-diamine, IIb] registered an IC50 of 1790 nM.
The figure for `NC1=NC2(CCCC2)N(OCCc2ccccc2)C(N)=N1` [6,8,10-Traiazaspiro[4.5]deca-6,8-diene-7,9-diamine, Ic] is 31 nM; for `NC1=NC2(CCCC2)N(Cc2ccccc2)C(N)=N1` [6,8,10-Traiazaspiro[4.5]deca-6,8-diene-7,9-diamine, Ia] it is more than 50000 nM.
The compound `NC1=NC2(CCCC2)N(OCCCOc2ccccc2)C(N)=N1` had an IC50 of 2.3 nM.
Under `NC1=NC2(CCCCC2)N(Cc2ccccc2)C(N)=N1` [1,3,5-Triazaspiro[5.5]undeca-1,3-diene-2,4-diamine, IIa] stands more than 50000 nM.
Under `NC1=NC2(CCCC2)N(OCCCc2ccccc2)C(N)=N1` [6,8,10-Traiazaspiro[4.5]deca-6,8-diene-7,9-diamine, Id] stands 20.1 nM.
